Laboratory results taken from patent publication US20260356819A1, “OXOISOINDOLINYL-SUBSTITUTED […] DERIVATIVE AND USE THEREOF” (GLUETACS THERAPEUTICS (SHANGHAI) CO., LTD., priority 2023, published 2026).

What was measured:
Format in all cases: cell-based
Settings in all cases: compounds at 50 nM and 500 nM
IKZF3 = molecular target: T1, IKZF3 (Homo sapiens, UniProt Q96SW2+Q9UKT9); test: Western blot degradation of IKZF3 in hPBMCs (24 h)
T1 construct: The supernatant was aspirated as the extracted total cell protein; endogenous in cells; host or cells: human peripheral blood mononuclear cells (hPBMCs)
Summary of the method: (§1)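 Immunoblot densitometry quantifies target loss in hPBMCs after a 24 h compound exposure (50 nM, 500 nM). Percent remaining is normalised band intensity; DC50 is the concentration giving half the DMSO-control band grayscale.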

CK1α = molecular target: T2, CK1α (Homo sapiens, UniProt P48729+Q96SW2); test: Western blot degradation of CK1α in hPBMCs (24 h)
T2 construct: The supernatant was aspirated as the extracted total cell protein; endogenous in cells; host or cells: human peripheral blood mononuclear cells (hPBMCs)
Summary of the method: as §1

WEE1 = molecular target: T3, WEE1 (Homo sapiens, UniProt P30291+Q96SW2); test: Western blot degradation of WEE1 in hPBMCs (24 h)
T3 construct: The supernatant was aspirated as the extracted total cell protein; endogenous in cells; host or cells: human peripheral blood mononuclear cells (hPBMCs)
Summary of the method: as §1

IKZF2 = molecular target: T4, IKZF2 (Homo sapiens, UniProt Q96SW2+Q9UKS7); test: Western blot degradation of IKZF2 in hPBMCs (24 h)
T4 construct: The supernatant was aspirated as the extracted total cell protein; endogenous in cells; host or cells: human peripheral blood mononuclear cells (hPBMCs)
Summary of the method: as §1

GSPT1 = molecular target: T5, GSPT1 (Homo sapiens, UniProt P15170+Q96SW2); test: Western blot degradation of GSPT1 in hPBMCs (24 h)
T5 construct: The supernatant was aspirated as the extracted total cell protein; endogenous in cells; host or cells: human peripheral blood mononuclear cells (hPBMCs)
Summary of the method: as §1

IKZF1 = molecular target: T6, IKZF1 (Homo sapiens, UniProt Q13422+Q96SW2); test: Western blot degradation of IKZF1 in hPBMCs (24 h)
T6 construct: The supernatant was aspirated as the extracted total cell protein; endogenous in cells; host or cells: human peripheral blood mononuclear cells (hPBMCs)
Summary of the method: as §1

T6 sequence (Q13422 whole entry): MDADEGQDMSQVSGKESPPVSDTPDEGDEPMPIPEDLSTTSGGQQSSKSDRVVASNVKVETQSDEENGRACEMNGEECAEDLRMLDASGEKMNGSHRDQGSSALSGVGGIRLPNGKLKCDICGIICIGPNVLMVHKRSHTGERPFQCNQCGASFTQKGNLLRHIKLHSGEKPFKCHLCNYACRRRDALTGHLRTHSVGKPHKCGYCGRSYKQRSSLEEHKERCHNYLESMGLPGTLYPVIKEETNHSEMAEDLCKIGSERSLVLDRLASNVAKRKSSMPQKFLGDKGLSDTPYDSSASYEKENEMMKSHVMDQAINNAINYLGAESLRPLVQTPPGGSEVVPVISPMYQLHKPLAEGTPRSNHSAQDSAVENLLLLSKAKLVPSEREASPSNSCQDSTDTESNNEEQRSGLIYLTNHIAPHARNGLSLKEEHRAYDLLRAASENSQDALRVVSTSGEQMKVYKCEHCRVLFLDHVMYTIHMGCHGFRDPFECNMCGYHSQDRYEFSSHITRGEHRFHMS
T6 sequence (Q96SW2 whole entry): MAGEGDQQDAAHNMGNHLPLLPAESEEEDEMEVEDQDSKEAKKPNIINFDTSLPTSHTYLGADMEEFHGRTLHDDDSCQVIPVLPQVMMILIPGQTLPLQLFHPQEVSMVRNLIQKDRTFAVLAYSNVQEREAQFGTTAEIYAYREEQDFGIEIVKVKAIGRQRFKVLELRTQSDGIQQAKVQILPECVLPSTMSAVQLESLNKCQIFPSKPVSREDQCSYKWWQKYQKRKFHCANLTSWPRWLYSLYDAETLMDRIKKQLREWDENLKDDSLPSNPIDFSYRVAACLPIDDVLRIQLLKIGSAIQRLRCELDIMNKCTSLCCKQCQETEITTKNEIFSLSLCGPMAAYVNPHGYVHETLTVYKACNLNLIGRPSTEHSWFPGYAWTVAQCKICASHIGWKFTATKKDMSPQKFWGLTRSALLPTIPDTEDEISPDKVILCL
T6 sequence (Q16531 whole entry partner): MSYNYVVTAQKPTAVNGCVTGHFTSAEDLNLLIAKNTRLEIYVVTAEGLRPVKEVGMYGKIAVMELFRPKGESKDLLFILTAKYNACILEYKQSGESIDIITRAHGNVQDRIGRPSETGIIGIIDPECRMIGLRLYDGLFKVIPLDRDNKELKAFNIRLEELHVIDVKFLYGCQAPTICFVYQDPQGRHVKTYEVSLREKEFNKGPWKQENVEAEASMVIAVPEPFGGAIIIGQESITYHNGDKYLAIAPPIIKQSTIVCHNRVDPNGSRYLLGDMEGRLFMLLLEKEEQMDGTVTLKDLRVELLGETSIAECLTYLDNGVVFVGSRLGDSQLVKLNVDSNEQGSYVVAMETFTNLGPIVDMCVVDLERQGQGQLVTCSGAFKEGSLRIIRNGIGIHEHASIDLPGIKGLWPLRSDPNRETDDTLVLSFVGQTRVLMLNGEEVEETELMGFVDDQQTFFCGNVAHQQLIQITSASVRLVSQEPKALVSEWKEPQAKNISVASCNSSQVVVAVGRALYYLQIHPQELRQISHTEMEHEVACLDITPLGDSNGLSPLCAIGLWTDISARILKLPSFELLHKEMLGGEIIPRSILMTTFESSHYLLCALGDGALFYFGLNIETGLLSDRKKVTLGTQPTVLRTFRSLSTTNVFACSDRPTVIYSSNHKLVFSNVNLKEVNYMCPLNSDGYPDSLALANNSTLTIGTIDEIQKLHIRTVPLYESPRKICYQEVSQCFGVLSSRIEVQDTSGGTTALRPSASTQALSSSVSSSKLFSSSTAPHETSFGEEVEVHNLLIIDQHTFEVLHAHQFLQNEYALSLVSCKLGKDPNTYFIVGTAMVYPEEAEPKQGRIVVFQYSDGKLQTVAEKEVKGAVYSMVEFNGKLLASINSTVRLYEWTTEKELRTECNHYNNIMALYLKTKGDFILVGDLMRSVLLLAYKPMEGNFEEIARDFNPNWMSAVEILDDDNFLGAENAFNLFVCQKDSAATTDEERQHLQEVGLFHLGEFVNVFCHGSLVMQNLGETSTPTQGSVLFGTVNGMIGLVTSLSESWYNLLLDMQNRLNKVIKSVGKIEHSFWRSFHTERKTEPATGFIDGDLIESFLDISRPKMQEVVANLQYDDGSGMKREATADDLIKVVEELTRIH
T5 sequence (P15170 whole entry): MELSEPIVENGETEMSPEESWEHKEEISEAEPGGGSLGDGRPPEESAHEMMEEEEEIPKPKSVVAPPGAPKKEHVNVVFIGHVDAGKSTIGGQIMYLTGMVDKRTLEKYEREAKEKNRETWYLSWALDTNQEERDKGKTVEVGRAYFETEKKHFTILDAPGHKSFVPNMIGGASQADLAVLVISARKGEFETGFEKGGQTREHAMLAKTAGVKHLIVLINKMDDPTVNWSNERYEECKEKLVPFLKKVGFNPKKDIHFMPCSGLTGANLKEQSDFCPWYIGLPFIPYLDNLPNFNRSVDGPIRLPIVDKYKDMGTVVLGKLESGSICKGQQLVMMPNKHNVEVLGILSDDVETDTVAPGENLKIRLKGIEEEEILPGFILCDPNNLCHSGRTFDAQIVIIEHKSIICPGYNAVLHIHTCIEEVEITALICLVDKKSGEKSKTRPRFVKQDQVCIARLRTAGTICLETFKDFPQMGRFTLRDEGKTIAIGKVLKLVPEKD
T5 sequence (Q96SW2 whole entry): as the sequence (Q96SW2 whole entry) above
T5 sequence (Q16531 whole entry partner): as the sequence (Q16531 whole entry partner) above
T1 sequence (Q9UKT9 whole entry): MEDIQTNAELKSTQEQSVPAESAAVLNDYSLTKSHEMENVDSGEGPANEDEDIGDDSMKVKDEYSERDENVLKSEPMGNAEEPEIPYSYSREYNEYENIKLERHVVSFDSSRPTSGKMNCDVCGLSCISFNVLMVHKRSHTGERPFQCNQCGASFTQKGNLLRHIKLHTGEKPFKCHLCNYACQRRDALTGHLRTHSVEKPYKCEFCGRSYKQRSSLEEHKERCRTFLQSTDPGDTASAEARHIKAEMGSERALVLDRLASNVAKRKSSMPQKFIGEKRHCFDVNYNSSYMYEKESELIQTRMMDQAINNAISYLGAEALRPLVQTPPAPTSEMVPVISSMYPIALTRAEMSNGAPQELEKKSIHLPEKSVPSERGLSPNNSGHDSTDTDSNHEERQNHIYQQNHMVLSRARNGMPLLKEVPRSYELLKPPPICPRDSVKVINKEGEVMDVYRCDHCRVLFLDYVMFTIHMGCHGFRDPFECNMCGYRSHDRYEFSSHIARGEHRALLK
T1 sequence (Q96SW2 whole entry): as the sequence (Q96SW2 whole entry) above
T1 sequence (Q16531 whole entry partner): as the sequence (Q16531 whole entry partner) above
T4 sequence (Q9UKS7 whole entry): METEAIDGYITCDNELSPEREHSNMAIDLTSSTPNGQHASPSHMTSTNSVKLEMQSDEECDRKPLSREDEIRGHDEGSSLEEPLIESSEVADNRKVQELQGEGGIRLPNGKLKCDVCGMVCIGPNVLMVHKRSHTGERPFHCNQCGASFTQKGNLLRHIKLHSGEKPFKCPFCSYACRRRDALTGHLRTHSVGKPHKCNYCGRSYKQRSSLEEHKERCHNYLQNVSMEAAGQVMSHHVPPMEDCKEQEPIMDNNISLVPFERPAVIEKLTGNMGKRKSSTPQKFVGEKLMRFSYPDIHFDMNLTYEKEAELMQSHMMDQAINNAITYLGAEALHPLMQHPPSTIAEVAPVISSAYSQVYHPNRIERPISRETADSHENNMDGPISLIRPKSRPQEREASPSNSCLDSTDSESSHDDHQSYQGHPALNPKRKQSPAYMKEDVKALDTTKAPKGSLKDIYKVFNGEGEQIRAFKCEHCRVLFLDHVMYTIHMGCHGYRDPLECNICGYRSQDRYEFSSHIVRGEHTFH
T4 sequence (Q96SW2 whole entry): as the sequence (Q96SW2 whole entry) above
T4 sequence (Q16531 whole entry partner): as the sequence (Q16531 whole entry partner) above
T3 sequence (P30291 whole entry): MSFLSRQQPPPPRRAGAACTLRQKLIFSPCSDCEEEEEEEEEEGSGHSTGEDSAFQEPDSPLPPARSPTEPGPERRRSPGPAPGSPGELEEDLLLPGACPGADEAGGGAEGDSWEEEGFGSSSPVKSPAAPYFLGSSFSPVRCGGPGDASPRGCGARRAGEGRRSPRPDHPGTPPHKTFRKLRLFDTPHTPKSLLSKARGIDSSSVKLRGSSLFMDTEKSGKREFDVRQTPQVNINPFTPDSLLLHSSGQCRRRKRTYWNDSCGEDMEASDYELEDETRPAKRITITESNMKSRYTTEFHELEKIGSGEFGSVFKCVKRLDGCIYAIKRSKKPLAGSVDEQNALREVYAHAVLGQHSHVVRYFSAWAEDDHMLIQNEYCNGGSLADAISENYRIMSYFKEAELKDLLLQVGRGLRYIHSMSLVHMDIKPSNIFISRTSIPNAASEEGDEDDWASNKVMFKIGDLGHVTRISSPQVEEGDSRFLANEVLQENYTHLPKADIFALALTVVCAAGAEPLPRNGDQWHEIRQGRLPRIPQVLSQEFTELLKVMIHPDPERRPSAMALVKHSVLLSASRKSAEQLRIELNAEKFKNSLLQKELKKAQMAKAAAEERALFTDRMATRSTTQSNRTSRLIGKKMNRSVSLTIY
T3 sequence (Q96SW2 whole entry): as the sequence (Q96SW2 whole entry) above
T3 sequence (Q16531 whole entry partner): as the sequence (Q16531 whole entry partner) above

Row | Structure (SMILES) | IKZF3 substrate protein remaining % (IKZF3) | CK1α substrate protein remaining % (CK1α) | WEE1 substrate protein remaining % (WEE1) | IKZF2 substrate protein remaining % (IKZF2) | GSPT1 substrate protein remaining % (GSPT1) | IKZF1 substrate protein remaining % (IKZF1)
1 | O=C1CCN(N2C(=O)c3ccc(CN4CCC(n5cnc6cc(F)ccc65)CC4)cc3C2=O)C(=O)N1 [GT-07529, 2-(2,4-dioxotetrahydropyrimidin-1(2H)-yl)-5-((4-(5-fluoro-1H-benzo[d]imidazol-1-yl)piperidin-1-yl)methyl)isoindoline-1,3-dione] | B (80%< substrate protein remaining % ≤100%) | A (0% ≤ substrate protein remaining % ≤80%) | B (80%< substrate protein remaining % ≤100%) | B (80%< substrate protein remaining % ≤100%) | A (0% ≤ substrate protein remaining % ≤80%) | B (80%< substrate protein remaining % ≤100%)
2 | O=C1CCN(N2C(=O)c3ccc(CN4CCC(c5n[nH]c6cc(F)ccc56)CC4)cc3C2=O)C(=O)N1 [GT-07530, 2-(2,4-dioxotetrahydropyrimidin-1(2H)-yl)-5-((4-(6-fluoro-1H-indazol-3-yl)piperidin-1-yl)methyl)isoindoline-1,3-dione] | B (80%< substrate protein remaining % ≤100%) | A (0% ≤ substrate protein remaining % ≤80%) | A (0% ≤ substrate protein remaining % ≤80%) | B (80%< substrate protein remaining % ≤100%) | A (0% ≤ substrate protein remaining % ≤80%) | B (80%< substrate protein remaining % ≤100%)
3 | O=C1CCN(N2Cc3cc(CN4CCN(c5n[nH]c6cc(F)ccc56)CC4)ccc3C2=O)C(=O)N1 [GT-07545, 1-(5-((4-(6-fluoro-1H-indazol-3-yl)piperazin-1-yl)methyl)-1-oxoisoindolin-2-yl)dihydropyrimidine-2,4(1H,3H)-dione] | B (80%< substrate protein remaining % ≤100%) | A (0% ≤ substrate protein remaining % ≤80%) | A (0% ≤ substrate protein remaining % ≤80%) | B (80%< substrate protein remaining % ≤100%) | A (0% ≤ substrate protein remaining % ≤80%) | A (0% ≤ substrate protein remaining % ≤80%)
4 | O=C1CCN(N2Cc3cc(CN4CC=C(c5c[nH]c6cc(F)ccc56)CC4)ccc3C2=O)C(=O)N1 [GT-07574, 1-(5-((4-(6-fluoro-1H-indol-3-yl)-3,6-dihydropyridin-1(2H)-yl)methyl)-1-oxoisoindolin-2-yl)dihydropyrimidine-2,4(1H,3H)-dione] | B (80%< substrate protein remaining % ≤100%) | A (0% ≤ substrate protein remaining % ≤80%) | A (0% ≤ substrate protein remaining % ≤80%) | A (0% ≤ substrate protein remaining % ≤80%) | A (0% ≤ substrate protein remaining % ≤80%) | B (80%< substrate protein remaining % ≤100%)
5 | O=C1CCN(N2Cc3cc(CN4CCC(c5c[nH]c6ncccc56)CC4)ccc3C2=O)C(=O)N1 [GT-07576, 1-(5-((4-(1H-pyrrolo[2,3-b]pyridin-3-yl)piperidin-1-yl)methyl)-1-oxoisoindolin-2-yl)dihydropyrimidine-2,4(1H,3H)-dione] | B (80%< substrate protein remaining % ≤100%) | A (0% ≤ substrate protein remaining % ≤80%) | A (0% ≤ substrate protein remaining % ≤80%) | A (0% ≤ substrate protein remaining % ≤80%) | A (0% ≤ substrate protein remaining % ≤80%) | A (0% ≤ substrate protein remaining % ≤80%)
